According to BindingDB's records for doi:10.1021/jm0613121 (Bar-Ilan University, 2007):

Each compound was assayed against T1, Gag-Pol polyprotein [600-1029,C879S]/[600-1159,C879S] (Human immunodeficiency virus 1, UniProt P03366, C879S) (assay: HIV-1 RT Assay). Conditions: not given.
T1 construct: 600-1029; 600-1159

Row | Compound | IC50 [µM]
1 | NC(=O)c1scnc1-c1cccc(I)c1 [4-(3-Iodophenyl)thiazole-5-carboxamide] | > 312
2 | NC(=O)c1scnc1-c1cccc(-c2ccccc2)c1 [4-(3-phenylphenyl)-1,3-thiazole-5-carboxamide] | > 312
3 | NC(=O)c1[nH]cnc1-c1cccc(-c2ccccc2)c1 [4-(3-Phenylphenyl)-1H-imidazole-5-carboxamide] | > 312

Same assay, conditions: pH 7.5; 37 °C

Row | Compound | IC50 [µM]
4 | NC(=O)CC(=O)c1cccc(C(=O)c2ccccc2)c1 [3-(3-Benzoylphenyl)-3-oxopropanamide] | > 312
5 | N#CCC(=O)c1ccc(Cl)c(Br)c1 [3-(3-Bromo-4-chlorophenyl)-3-oxopropanenitrile] | > 312
6 | NC(=O)c1[nH]cnc1-c1cccc(C(=O)c2ccccc2)c1 [4-(3-Benzoylphenyl)-1H-imidazole-5-carboxamide] | > 312
7 | N#CCC(=O)c1cccc(I)c1 [3-(3-Iodophenyl)-3-oxopropanenitrile] | > 312
8 | NC(=O)CC(=O)c1cccc(Cl)c1 [3-(3-Chlorophenyl)-3-oxopropanamide] | > 312
9 | NC(=O)CC(=O)c1cccc(-c2ccccc2)c1 [3-Oxo-3-(3-phenylphenyl)propanamide] | > 312
